According to patent US20050124562A1, “Bis-quinazoline compounds for the treatment of bacterial infections” (priority 2003, published 2005):
In brackets after ≈: the same amount, converted by molar mass. Read-outs that look alike come from different tables or passages of the source.

Key:
[1] = test system: reconstituted bacterial DNA polymerase holoenzymes from E. coli, Y. pestis and S. pyogenes; format: biochemical
[2] = test system: S. aureus, E. faecalis, S. pyogenes and S. pneumoniae; assay: Broth microdilution MIC (NCCLS), gram-positive strains; format: cell-based
Outline: (§1)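 MICs by broth microdilution per NCCLS M-7 A-6 against ATCC strains, including ORSA and VRE; MBCs determined for selected organisms. Serum effect assessed by repeating MIC tests with human serum present.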

[3] = test system: clinically important gram-positive pathogens; assay: Whole cell antibacterial (MIC) and bactericidal (MBC) activity; format: cell-based
Method: (§2) Representative bis-quinazolines were tested for antibacterial activity using the […] microdilution method to determine their minimum inhibitory concentrations (MICs). All compounds were tested using standard methods in accordance with NCCLS guidelines (National Committee for Clinical Laboratory Standards. 2003. Methods for dilution antimicrobial susceptibility testing for bacteria that grow aerobically. Approved Standard M-7 A-6, NCCLS, Wayne, Pa.). The bacterial strains used in the susceptibility tests were obtained from the American Type Culture Collection (ATCC) and included resistant phenotypes such as oxacillin-resistant S. aureus (ORSA) and vancomycin-resistant enterococci (VRE). The minimum bactericidal concentrations (MBCs) were determined for selected organisms. The effect of protein binding on the antibacterial activity of representative bis-quinazolines were determined by conducting MIC tests in the presence of human serum.

[4] = test system: clinically important bacterial pathogens; assay: MIC tests in the presence of human serum; format: cell-based; settings: 50% human serum
Method: as §2

[5] = Single dose toxicity study in the mouse; format: in vivo; settings: single dose IP, 2.5 to 25 mg/kg, female Swiss-Webster mice, monitored one week
Method: A single dose toxicity study was conducted in the mouse prior to evaluating the compound for in vivo efficacy. 2-(6-Methoxy-4-methyl-quinazolin-2-ylamino)-3H-quinazolin-4-ol was prepared in a vehicle consisting of 10% DMSO, 10% ethanol and 80% saline that contained 3% β-cyclodextrin. The compound was administered as a single dose to the peritoneal cavity of female Swiss-Webster mice at the six concentrations (2.5, 5, 10, 15, 20 and 25 mg/kg) proposed for evaluation in the efficacy study. The mice were monitored for toxicity for one week following compound administration.

S. aureus ATCC 29213 = assay: S. aureus murine intra-abdominal sepsis model; format: in vivo, mice; settings: 25 mg/kg IP one hour post infection, MLD of S. aureus IP
Method: Typically, the model involves inoculating the intra-peritoneal cavity of the mouse with the minimum lethal dose (MLD) of the test organism. The test antimicrobial agent can be administered by any route (e.g. intravenously, sub-cutaneously, oral, intraperitoneal). Early stage compounds are evaluated following intraperitoneal administration since this is considered to be relevant to systemic treatment since most of the compound will be absorbed into the bloodstream. The compound is then monitored for its ability to protect the mouse from a lethal infection with the test organism in a concentration-dependent manner. At the same time the model provides early data on the potential toxicity of a new compound.
The S. aureus murine intra-abdominal sepsis model was used to evaluate the in vivo efficacy of 2-(6-Methoxy-4-methyl-quinazolin-2-ylamino)-3H-quinazolin-4-ol. […] The animals were then monitored at frequent intervals and the numbers of mice surviving in the different treatment groups was scored and recorded in an attempt to determine the protective dose (PD50). Levofloxacin was evaluated as a positive control (0.875, 1.75, 3.125, 6.25, 12.5 and 25 mg/kg). Vehicle only and saline controls were also evaluated.

M. catarrhalis = assay: Broth microdilution MIC (NCCLS), M. catarrhalis; format: cell-based; settings: Moraxella catarrhalis; some strains of M. catarrhalis; read-out: MIC range
Outline: as §1

H. influenzae = assay: Broth microdilution MIC (NCCLS), H. influenzae; format: cell-based; settings: Haemophilus influenzae; some strains of H. influenzae
Outline: as §1

[6] = test system: efflux mutants of E. coli; assay: Broth microdilution MIC (NCCLS), E. coli efflux mutants; format: cell-based; settings: Escherichia coli, read-out: MICs
Outline: as §1

[7] = test system: efflux mutants of P. aeruginosa; assay: Broth microdilution MIC (NCCLS), P. aeruginosa efflux mutants; format: cell-based; settings: Pseudomonas aeruginosa, read-out: MICs
Outline: as §1

[8] = range against some strains of S. aureus, E. faecalis, S. pyogenes and S. pneumoniae, read-out: MIC

| Compound | biochemical activity against reconstituted DNA polymerase holoenzymes [1] | MIC [2] [µg/mL] | whole cell antibacterial and bactericidal activity [3] | antibacterial activity in the presence of human serum [4] | tolerability after single dose ([5]; listed as 2-(6-Methoxy-4-methyl-quinazolin-2-ylamino)-3H-quinazolin-4-ol) | tolerability after single dose ([5]; listed as 2-(6-Methoxy-4-methyl-quinazolin-2-ylamino)-3H-quinazolin-4-one) | mice protected from lethal S. aureus infection (S. aureus ATCC 29213) [%] | MIC [2, 8] [µg/mL] | MIC (M. catarrhalis) [µg/mL] | MIC (H. influenzae) [µg/mL] | MIC [6] [µg/mL] | MIC [7] [µg/mL] |
| --- | --- | --- | --- | --- | --- | --- | --- | --- | --- | --- | --- | --- |
| COc1ccc2nc(Nc3nc(O)c4ccccc4n3)nc(C)c2c1 [Example 9, 2-(6-Methoxy-4-methyl-quinazolin-2-ylamino)-quinazolin-4-ol] | demonstrated biochemical activity | 0.06 to 16 (≈ 0.18 to 48 µM) | potent whole cell antibacterial and bactericidal activity | activity is evident | All mice tolerated the compound | well tolerated | 50 |  |  |  |  |  |
| COc1cc2nc(Nc3nc(O)c4cc(OCCN5CCCC5CO)ccc4n3)nc(C)c2cc1OC.O=C(O)C(F)(F)F (stereo not shown) [Example 164, 2-(6,7-Dimethoxy-4-methyl-quinazolin-2-ylamino)-6-[2-(2-hydroxymethyl-pyrrolidin-1-yl)-ethoxy]-quinazolin-4-ol trifluoroacetate salt] |  |  |  |  |  |  |  | 0.06 to 16 | 2 to 64 | 16 to 32 | 16 to 64 | 64 |
| COc1cc2nc(Nc3nc(O)c4cc(OCCNC(CO)CO)ccc4n3)nc(C)c2cc1OC.O=C(O)C(F)(F)F [Example 165, 2-{2[-2-(6,7-Dimethoxy-4-methyl-quinazolin-2-ylamino)-4-hydroxy-quinazolin-6-yloxy]-ethylamino}-propane-1,3-diol trifluoroacetate salt] |  |  |  |  |  |  |  | 0.06 to 16 | 2 to 64 | 16 to 32 | 16 to 64 | 64 |
| COc1cc(OC)c2nc(Nc3nc(O)c4cc(OCCN5CCCC5)ccc4n3)nc(C)c2c1.O=C(O)C(F)(F)F [Example 166, 2-(6,8-Dimethoxy-4-methyl-quinazolin-2-ylamino)-6-(2-pyrrolidin-1-yl-ethoxy)-quinazolin-4-ol trifluoroacetate salt] |  |  |  |  |  |  |  | 0.06 to 16 | 2 to 64 | 16 to 32 | 16 to 64 | 64 |
| COc1cc2nc(Nc3nc(O)c4cc(OCCNC(C)CO)ccc4n3)nc(C)c2cc1OC.O=C(O)C(F)(F)F (stereo not shown) [Example 169, 2-(6,7-Dimethoxy-4-methyl-quinazolin-2-ylamino)-6-[2-(2-hydroxy-1-methyl-ethylamino)-ethoxy]-quinazolin-4-ol trifluoroacetate salt] |  |  |  |  |  |  |  | 0.06 to 16 | 2 to 64 | 16 to 32 | 16 to 64 | 64 |
| COc1cc2nc(Nc3nc(O)c4cc(OCCN5CCOC(CO)C5)ccc4n3)nc(C)c2cc1OC.O=C(O)C(F)(F)F (stereo not shown) [Example 170, 2-(6,7-Dimethoxy-4-methyl-quinazolin-2-ylamino)-6-[2-(2-hydroxymethyl-morpholin-4-yl)-ethoxy]-quinazolin-4-ol trifluoroacetate salt] |  |  |  |  |  |  |  | 0.06 to 16 | 2 to 64 | 16 to 32 | 16 to 64 | 64 |
| CCN(CCOc1ccc2nc(Nc3nc(C)c4cc(OC)c(OC)cc4n3)nc(O)c2c1)CCN(C)C.O=C(O)C(F)(F)F [Example 171, 2-(6,7-Dimethoxy-4-methyl-quinazolin-2-ylamino)-6-{2[(2-dimethylamino-ethyl)-ethyl-amino]-ethoxy}-quinazolin-4-ol trifluoroacetate salt] |  |  |  |  |  |  |  | 0.06 to 16 | 2 to 64 | 16 to 32 | 16 to 64 | 64 |
